Experimental data taken from patent US20250102493A1, “COMPOSITIONS AND METHODS FOR TREATMENT OF ANEUPLOID CANCERS” (Yale University, priority 2023, published 2025).

Assays:
NCI-60 cell line panel = conditions: NCI-60 panel (Luna et al.); cited from earlier work
MCF10A cells [1] = test: Cellular competition between 1q-trisomic and 1q-disomic MCF10A cells; assay type: cell-based, human
Protocol: For the competition experiment, two independent experiments were performed: one when cells were mixed at an 80-20 ratio and one when cells were mixed at a 90:10 ratio. Similar results were obtained in both experiments.
Whether the greater sensitivity of 1q-trisomic cells to UCK2 substrates could be used to re-direct cellular evolution away from aneuploidy and towards a disomic state with lower malignant potential was assessed (FIG. 6E). Fluorescently-labeled 1q-trisomic and 1q-disomic MCF10A cells were mixed at a ratio of 20:80 and then co-cultured the two cell populations. After nine days of growth in drug-free medium, the trisomic cells had expanded to include 75% of the culture, but when the same cell populations were grown in the presence of 500 nM 3-deazauridine, the trisomic population decreased to include only 4% of the final culture (FIG. 6F).

MCF10A cells [2] = test: 72-hour drug assay in MCF10A 1q-trisomic and 1q-disomic cells; assay type: cell-based, human; conditions: FIG. 6D
Text: (§1) Following this, the cells were harvested and counted.

HAP1 UCK2-knockout cells = test: 72-hour drug assay in UCK2-knockout HAP1 cells; assay type: cell-based; conditions: haploid HAP1 cell line, UCK2 deleted with CRISPR
Text: as §1
HAP1 cells harboring a CRISPR-induced frameshift mutation in the UCK2 gene were purchased from Horizon Discovery (cat. no. HZGHC007067c006). Loss of UCK2 expression was verified by western blotting.
First, as the mechanism of many cancer drugs is poorly understood (Lin, et al., Sci. Transl. Med. 11 (2019), Lin & Sheltzer, Nat. Rev. Genet. 21, 671-682 (2020)),whether the cytotoxicity of RX-3117 and 3-deazauridine requires UCK2 expression was assessed.

A2780 cells = test: 72-hour drug assay in A2780 1q-trisomic and 1q-disomic cells; assay type: cell-based, human; conditions: for sensitivity of cells harboring a trisomy of chromosome 1q compared to isogenic cells containing two copies of chromosome 1q: A2780, FIG. 6D; for sensitivity of 1q disomic cells compared to 1q trisomic cells: A2780 WT (1q trisomic) and engineered 1q disomic clones C1-C4
Text: as §1

DLD1 colon cancer cells = test: Drug sensitivity of DLD1 trisomy-1 cells and parental DLD1 cells; assay type: cell-based; conditions: P<0.005; t-test
Protocol: The DLD1 trisomy 1 clone was generated as previously described in ref (Vasudevan, et al., Dev. Cell. 52, 413-428.e6 (2020)). In brief, DLD1 cells were transiently treated with 1 μM AZ3146 (Selleck Chemicals; cat. no. S2731) for 24 hours, and then the drug was washed out and the cells were allowed to recover for 24 hours. Following the recovery passage, single-cell sorting was performed to isolate individual aneuploid clones. SMASH-Seq was used to identify a clone harboring a trisomy of chromosome 1.
as §1

A2058 cells = test: 72-hour drug assay in A2058 1q-trisomic and 1q-disomic cells; assay type: cell-based, human
Text: as §1

AGS cells = test: 72-hour drug assay in AGS 1q-trisomic and 1q-disomic cells; assay type: cell-based, human
Text: as §1

## O=C1C=CN([C@@H]2O[C@H](CO)[C@@H](O)[C@H]2O)C(=O)C1 [3-deazauridine]
NCI-60 cell line panel
  correlation of UCK2 expression with sensitivity to the compound: higher UCK2 expression correlates with greater sensitivity
MCF10A cells [1]; 500 nM 3-deazauridine, nine days, 1q-trisomic and 1q-disomic MCF10A mixed at 20:80, 75% in drug-free medium
  trisomic population in the final culture: 4%
MCF10A cells [1]; trisomic and disomic MCF10A mixed at 20% to 80%, FIG. 6F
  effect on outgrowth of the 1q-trisomic subpopulation: prevents the outgrowth of the 1q-trisomic subpopulation
MCF10A cells [2]
  sensitivity of cells harboring a trisomy of chromosome 1q compared to isogenic cells containing two copies of chromosome 1q: more sensitive
HAP1 UCK2-knockout cells
  response of UCK2-knockout cells to the compound: highly resistant
A2780 cells
  sensitivity of cells harboring a trisomy of chromosome 1q compared to isogenic cells containing two copies of chromosome 1q: more sensitive
  sensitivity of 1q disomic cells compared to 1q trisomic cells: less sensitive

## Nc1ccn([C@@H]2C(F)=C(CO)[C@@H](O)[C@H]2O)c(=O)n1 [RX-3117]
DLD1 colon cancer cells
  sensitivity of DLD1 trisomy-1 cells compared to the parental DLD1 cells: significantly more sensitive
NCI-60 cell line panel
  correlation of UCK2 expression with sensitivity to the compound: higher UCK2 expression correlates with greater sensitivity
MCF10A cells [2]
  sensitivity of cells harboring a trisomy of chromosome 1q compared to isogenic cells containing two copies of chromosome 1q: more sensitive
A2058 cells
  difference in sensitivity between 1q-trisomic and 1q-disomic cells: not evident
HAP1 UCK2-knockout cells
  response of UCK2-knockout cells to the compound: highly resistant
AGS cells
  difference in sensitivity between 1q-trisomic and 1q-disomic cells: not evident
A2780 cells; 1q-disomic A2780 cells
  effect of ectopic overexpression of UCK2 cDNA on sensitivity to the compound: increase sensitivity
A2780 cells; 1q-trisomic A2780 cells
  effect of deleting a single copy of UCK2 on sensitivity to the compound: decrease sensitivity
A2780 cells
  sensitivity of cells harboring a trisomy of chromosome 1q compared to isogenic cells containing two copies of chromosome 1q: more sensitive
  sensitivity of 1q disomic cells compared to 1q trisomic cells: less sensitive
